Data reported in ChEMBL document CHEMBL3885861, “Open TG-GATES”.

Species: Rattus norvegicus
Test: Open TG-GATES - Regimen: Single
Format: toxicity, organism-based, Sprague-Dawley
Design: regimen Single, gender Male, age 6 weeks
Conditions: in vivo, po, 15 mg/kg, route gavage, dose level Middle; for APTT / Bas / Eos / Fbg / Hb / Ht / Lym / MCH / MCHC / MCV / Mono / Neu / PT / Plat / RBC / Ret / WBC: tissue Blood; for KIDNEY_L / KIDNEY_R / KIDNEY_TOTAL: tissue Kidney; for LIVER: tissue Liver; for A/G / ALP / ALT / AST / BUN / CRE / Ca / Cl / DBIL / GLC / IP / K / LDH / Na / PL / RALB / TBIL / TC / TG / TP / gamma-GTP: tissue Plasma

## CC(=N)S [THIOACETAMIDE]
3 h
  TERMINAL_BW: 190.8 g
  APTT: 16.9 s
  Bas: 0%
  Eos: 0.2%
  Fbg: 228 mg/dL
  Hb: 13.2 g/dL
  Ht: 39.8%
  Lym: 82%
  MCH: 21.7 pg
  MCHC: 33.1%
  MCV: 65.4 fL
  Mono: 8%
  Neu: 10%
  PT: 12.4 s
  Plat: 102.8 x10_4/uL
  RBC: 608.5 x10_4/ul
  Ret: 10%
  WBC: 130 x10_2/uL
  KIDNEY_L: 0.9 g
  KIDNEY_R: 0.9 g
  KIDNEY_TOTAL: 1.8 g
  LIVER: 8.9 g
  A/G: 2.4
  ALP: 868.5 IU/L
  ALT: 33.8 IU/L
  AST: 71 IU/L
  BUN: 11.8 mg/dL
  CRE: 0.5 mg/dL
  Ca: 10.9 mg/dL
  Cl: 104.5 meq/L
  DBIL: 0.0025 mg/dL
  GLC: 175.8 mg/dL
  IP: 9.6 mg/dL
  K: 4.4 meq/L
  LDH: 84.2 IU/L
  Na: 138.8 meq/L
  PL: 141.5 mg/dL
  RALB: 4 g/dL
  TBIL: 0.3 mg/dL
  TC: 81.5 mg/dL
  TG: 55 mg/dL
  TP: 5.7 g/dL
  gamma-GTP: 3.2 IU/L
6 h
  TERMINAL_BW: 187.8 g
  APTT: 17.2 s
  Bas: 0%
  Eos: 0.6%
  Fbg: 224.8 mg/dL
  Hb: 13.4 g/dL
  Ht: 40.5%
  Lym: 74.6%
  MCH: 21.6 pg
  MCHC: 33.2%
  MCV: 65.1 fL
  Mono: 5.8%
  Neu: 19.4%
  PT: 12.7 s
  Plat: 97.4 x10_4/uL
  RBC: 621.2 x10_4/ul
  Ret: 10%
  WBC: 125.4 x10_2/uL
  KIDNEY_L: 0.9 g
  KIDNEY_R: 0.9 g
  KIDNEY_TOTAL: 1.8 g
  LIVER: 8.4 g
  A/G: 2.1
  ALP: 924.4 IU/L
  ALT: 33 IU/L
  AST: 70.4 IU/L
  BUN: 10.2 mg/dL
  CRE: 0.6 mg/dL
  Ca: 10.5 mg/dL
  Cl: 104 meq/L
  DBIL: 0.022 mg/dL
  GLC: 171.4 mg/dL
  IP: 9.1 mg/dL
  K: 4.9 meq/L
  LDH: 77 IU/L
  Na: 137.2 meq/L
  PL: 142.8 mg/dL
  RALB: 3.7 g/dL
  TBIL: 0.4 mg/dL
  TC: 80 mg/dL
  TG: 73 mg/dL
  TP: 5.4 g/dL
  gamma-GTP: 1 IU/L
9 h
  TERMINAL_BW: 183.3 g
  APTT: 17.2 s
  Bas: 0%
  Eos: 0.6%
  Fbg: 226 mg/dL
  Hb: 13.2 g/dL
  Ht: 40.2%
  Lym: 67.2%
  MCH: 21.5 pg
  MCHC: 33%
  MCV: 65.1 fL
  Mono: 8.8%
  Neu: 23.4%
  PT: 13.3 s
  Plat: 107 x10_4/uL
  RBC: 617.4 x10_4/ul
  Ret: 9.1%
  WBC: 126.9 x10_2/uL
  KIDNEY_L: 0.8 g
  KIDNEY_R: 0.8 g
  KIDNEY_TOTAL: 1.7 g
  LIVER: 7.7 g
  A/G: 2.2
  ALP: 887.6 IU/L
  ALT: 31.6 IU/L
  AST: 71.6 IU/L
  BUN: 12.6 mg/dL
  CRE: 0.5 mg/dL
  Ca: 10.2 mg/dL
  Cl: 104.2 meq/L
  DBIL: 0.006 mg/dL
  GLC: 178.2 mg/dL
  IP: 9.8 mg/dL
  K: 4.5 meq/L
  LDH: 93.6 IU/L
  Na: 137.2 meq/L
  PL: 122.6 mg/dL
  RALB: 3.8 g/dL
  TBIL: 0.5 mg/dL
  TC: 71.6 mg/dL
  TG: 40.6 mg/dL
  TP: 5.6 g/dL
  gamma-GTP: 1.4 IU/L
24 h
  TERMINAL_BW: 202.6 g
  APTT: 16.4 s
  Bas: 0%
  Eos: 1%
  Fbg: 231.6 mg/dL
  Hb: 13.5 g/dL
  Ht: 40.7%
  Lym: 83.8%
  MCH: 21.9 pg
  MCHC: 33.1%
  MCV: 66.1 fL
  Mono: 6.2%
  Neu: 9%
  PT: 12.8 s
  Plat: 107.7 x10_4/uL
  RBC: 616 x10_4/ul
  Ret: 9.1%
  WBC: 163 x10_2/uL
  KIDNEY_L: 1 g
  KIDNEY_R: 0.9 g
  KIDNEY_TOTAL: 1.9 g
  LIVER: 10.2 g
  A/G: 2
  ALP: 915.6 IU/L
  ALT: 44.4 IU/L
  AST: 71 IU/L
  BUN: 17.2 mg/dL
  CRE: 0.5 mg/dL
  Ca: 10.6 mg/dL
  Cl: 103.8 meq/L
  DBIL: 0.014 mg/dL
  GLC: 179.6 mg/dL
  IP: 7.5 mg/dL
  K: 5.1 meq/L
  LDH: 98.6 IU/L
  Na: 137 meq/L
  PL: 164 mg/dL
  RALB: 3.9 g/dL
  TBIL: 0.3 mg/dL
  TC: 85.2 mg/dL
  TG: 149.8 mg/dL
  TP: 5.8 g/dL
  gamma-GTP: 2.4 IU/L
